These results are taken from article PMC9714921 (PLOS Pathogens, 2022).

For test [1], the target named is Bma-ACR-16-asuICL chimera (Brugia malayi; Ascaris suum, UniProt A0A4E9FSR7+F1KYJ9). It counts as cell-based, B. malayi (A. suum ICL). The protocol: (§1) B. malayi acr-16 and accessory proteins ric-3, unc-50, unc-74 and molo-1 were cloned from adult female B. malayi cDNA received as a gift from Dr. T. Geary using the primers described in S1 Table. B. malayi eat-18 was prepared from two overlapping oligonucleotide primers. Other subunits were synthesized from their predicted genome sequence (Gene Universal, USA) (S2 Table). […] All sequences were cloned into the pTD2 oocyte expression vector. Asu-ACR-16 and Tzc-ACR-16 chimeras were constructed using appropriate restriction enzymes, reciprocal exchange through ligation and confirmed by sequencing (McLab, USA).
(§2) cRNA for oocyte injection was prepared with the mMESSAGE mMACHINE T7 kit following manufacturers protocol (Ambion, USA). Concentration was determined using a Nanodrop spectrophotometer. Desired subunit combinations with associated accessory proteins were mixed and diluted with nuclease-free water to a final concentration of 250 ng/uL for each construct.
(§3) Adult female X. laevis oocyte extraction was performed in accordance with the McGill University Animal Use Protocol 2015–7758 following standard protocol. Briefly, frog ovary lobes were placed in a Ca^2+-free OR2 solution (82 mM NaCl, 2 mM KCl, 1 mM MgCl2, 5 mM HEPES buffer, pH 7.3) and manually divided into clusters of <10 oocytes with thin tweezers followed by a 90-minute incubation in 10 mg/mL collagenase type II (Sigma-Aldrich, USA). Oocytes were washed in Ca^2+-free OR2 and placed ND96 solution (NaCl 96 mM, KCl 2 mM, CaCl2 1.8 mM, MgCl2 1 mM and HEPES 5 mM, pH 7.3) supplemented with sodium pyruvate 2.5 mM [86] and incubated at 18°C until cRNA injection. Oocytes were injected with 50 nL (12.5 ng of each injected gene) of the desired cRNA subunit and accessory protein combination mix with the NanojectII (Drummond Scientific, USA). Following injection, oocytes were incubated in ND96 buffer at 18°C until electrophysiology. All electrophysiology was conducted two days post-injection, except for the expression analysis assay in which oocytes were measured every day after injection for three consecutive days.
(§4) All drugs were dissolved in recording solution (NaCl 100 mM, KCl 2.5 mM, CaCl2 1 mM, HEPES 5 mM, pH 7.3) to a stock concentration of 10 mM and diluted to their final recording concentrations. Oxantel and bephenium were first dissolved in DMSO to ensure a final recording concentration contained less than 0.1% DMSO. For agonist profiling, all drugs were diluted to a concentration of 100 μM.
(§5) Oocytes were placed individually in an RC3Z chamber (Harvard Apparatus, USA) submerged in recording solution (NaCl 100 mM, KCl 2.5 mM, CaCl2 1 mM, HEPES 5 mM, pH 7.3). The RC3Z chamber was connected to a perfusion system containing recording solution and ligand solutions. Pulled glass capillaries (World Precision Instruments, USA) were filled with 3M KCl and the tips clipped and checked for appropriate resistance (between 0.5 and 5 MΩ). A 3M KCl agar bridge grounded the oocyte bath chamber. Measurements were made using an Axon Axoclamp 900A amplifier with Digidata1550M. […] Ligand solutions were applied to the oocytes with an approximate flow rate of 1.2 m/s and current responses measured. Oocytes were exposed to the ligand solution until a distinct current peak was observed followed by a wash with the recording solution until current returned to baseline for a minimum of 10 seconds until the next ligand exposure. For BAPTA-AM exposed oocytes, oocytes were incubated in 100 μM BAPTA-AM for four hours prior to electrophysiology recording. Data was analyzed using Clampex 9.2 (Axon Instruments, USA) and statistical analysis and graphs produced in Prism (GraphPad version 9.1). T-tests were used to compare responses with error bars representing standard error. For concentration-response curves, individual oocyte current response to the different ligand concentrations were normalized to the response obtained with 300 μM.

Test [2] deals with Asu-ACR-16-bmaICL chimera (Ascaris suum; Brugia malayi, UniProt A0A4E9FSR7+F1KYJ9). It counts as cell-based, A. suum (B. malayi ICL). The following applies: listed as acetylcholine. The protocol:
as §1, §2, §3
All drugs were dissolved in recording solution (NaCl 100 mM, KCl 2.5 mM, CaCl2 1 mM, HEPES 5 mM, pH 7.3) to a stock concentration of 10 mM and diluted to their final recording concentrations. […]
Oocytes were placed individually in an RC3Z chamber (Harvard Apparatus, USA) submerged in recording solution (NaCl 100 mM, KCl 2.5 mM, CaCl2 1 mM, HEPES 5 mM, pH 7.3). […] Ligand solutions were applied to the oocytes with an approximate flow rate of 1.2 m/s and current responses measured. […] Data was analyzed using Clampex 9.2 (Axon Instruments, USA) and statistical analysis and graphs produced in Prism (GraphPad version 9.1). […]

In test [3] the test system is ASU-ECD (A. suum ECD in Tzc-ACR-16). Nature of the test: Voltage-clamp electrophysiology, A. suum/T. callipaeda ACR-16 chimera in oocytes. In kind it is cell-based. The following applies: S2C Fig. The method, then:
as §1, §2, §3, §4, §5

The subject of test [4] is ASU-ICL (A. suum ICL in Tzc-ACR-16). The description is as above. In kind it is cell-based. The following applies: S2C Fig. The protocol: as §1, §2, §3, §4, §5
The test system of test [5] is ASU-TM (A. suum TM regions in Tzc-ACR-16). Described as above. It counts as cell-based. The following applies: S2C Fig. The protocol:
as §1, §2, §3, §4, §5

Test [6] deals with TZC-ECD (T. callipaeda ECD in Asu-ACR-16). The description is as above. In kind it is cell-based. The following applies: S2C Fig. The method, then: as §1, §2, §3, §4, §5
Test [7] relates to TZC-ICL (T. callipaeda ICL in Asu-ACR-16). The test is described as above. In kind it is cell-based. The following applies: S2C Fig. The protocol: as §1, §2, §3, §4, §5
In test [8] the test system is TZC-TM (Tzc-TM region in A. suum ACR-16). The test is described as above. The following applies: S2C Fig. It counts as cell-based. The protocol:
as §1, §2, §3, §4, §5

In test [9] the test system is Asu-ACR-16-REM. Nature of the test: Voltage-clamp electrophysiology, coding-sequence modified ACR-16 in oocytes. In kind it is cell-based, A. suum. The following applies: B. malayi ric-3 co-injected; agonist not named in the legend (ACh by the matching native values). The protocol:
as §1, §2
Adult female X. laevis oocyte extraction was performed in accordance with the McGill University Animal Use Protocol 2015–7758 following standard protocol. […] All electrophysiology was conducted two days post-injection, except for the expression analysis assay in which oocytes were measured every day after injection for three consecutive days. […]

Test [10] deals with T. suis N-AChR. The following applies: read-out: EC50 μM ACh; accessory protein Ric-3; ref [34]; cited from earlier work.
Test [11] has as its system T. muris N-AChR. The following applies: read-out: EC50 μM ACh; accessory protein Ric-3; ref [35]; cited from earlier work.

Values joined by “and” are separate entries in the source; they are usually repeats but may differ in a detail not shown here. Identical values can stand only once. Like-named read-outs stand apart in the source and are kept apart here.

In general, EC50 refers to the concentration needed to bring the measured effect to its halfway point. Take `CC(=O)OCC[N+](C)(C)C` [ACh, acetylcholine]: the “current response to 100 μM acetylcholine” value was 0 ± 0 (n=15) nA in test [1] (No accessory protein); 59 ±43 nA and 59 ± 12 (n=14) nA in [1] (co-injected: Bma-ric-3 (reference condition), listed as acetylcholine); 1 ± 2 nA and 1 ± 1 (n=11) nA in test [1] (co-injected: Bma-ric-3 + Bma-emc-6 + Cel-nra-2 + Cel-nra-4, listed as acetylcholine); 37 ± 12 (n=15) ns nA in [1] (co-injected: Bma-ric-3 + Cel-emc-6); 47 ± 18 (n=14) ns nA in test [1] (co-injected: Bma-ric-3 + Cel-nra-2 + Cel-nra-4, listed as acetylcholine); 256 ± 89 (n=11) nA in test [1] (co-injected: Bma-ric-3 + Cel-nra-2, listed as acetylcholine). For the same compound, the “current response to 100 μM acetylcholine” value is 22 ± 4 (n=14) nA in test [2] (No accessory protein); 3021 ± 444 nA and 3021 ± 128 (n=12) nA in [2] (co-injected: Bma-ric-3 (reference condition)); 2181 ± 99 (n=14) nA in test [2] (co-injected: Bma-ric-3 + Cel-nra-2). Also, the “response to ACh” value in [3] is listed as 1819 ± 115 nA; in [4], 2237 ± 98 nA; in test [5], 24 ± 8 nA; in [6] it was 42 ± 9 nA; in [7], 1959 ± 78 nA; in test [8], 2917 ± 105 nA. Also, the current response in test [9] is on record as 2197 ± 383 nA. In addition, the EC50 in test [10] was 14.5 ± 1.03 µM; in [11] it was 31.1 ± 0.3 µM.
